Laboratory results from US7396837B2, “Antitumoral analogs of lamellarins” (Pharma Mar, S.A.U., priority 2002, dated 2008).

Key:
Type in all cases: cell-based
SK-BR-3 = experiment: SRB colorimetric cell growth inhibition assay, SK-BR-3; conditions: Homo sapiens
How it was run: (§1)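 Continuous drug exposure of human cancer cells; SRB protein stain read-out; triplicate wells, mean ± SD; GI, TGI, LC computed.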

DU-145 = experiment: SRB colorimetric cell growth inhibition assay, DU-145; conditions: Homo sapiens
How it was run: as §1

SK-MEL-28 = experiment: SRB colorimetric cell growth inhibition assay, SK-MEL-28; conditions: Homo sapiens
How it was run: as §1

IGROV = experiment: SRB colorimetric cell growth inhibition assay, IGROV; conditions: Homo sapiens, IGROV
How it was run: as §1

HeLa = experiment: SRB colorimetric cell growth inhibition assay, HeLa; conditions: Homo sapiens, HeLa
How it was run: as §1

K-562 = experiment: SRB colorimetric cell growth inhibition assay, K-562; conditions: Homo sapiens
How it was run: as §1

LNCaP = experiment: SRB colorimetric cell growth inhibition assay, LNCaP; conditions: Homo sapiens, LNCaP
How it was run: as §1

LoVo-Dox = experiment: SRB colorimetric cell growth inhibition assay, LoVo-Dox (MDR); conditions: Homo sapiens
How it was run: as §1

IGROV-ET = experiment: SRB colorimetric cell growth inhibition assay, IGROV-ET (ET-743 resistant); conditions: Homo sapiens
How it was run: as §1

PANC-1 = experiment: SRB colorimetric cell growth inhibition assay, PANC-1; conditions: Homo sapiens
How it was run: as §1

A-549 = experiment: SRB colorimetric cell growth inhibition assay, A-549; conditions: Homo sapiens
How it was run: as §1

HeLa-APL = experiment: SRB colorimetric cell growth inhibition assay, HeLa-APL (aplidine resistant); conditions: Homo sapiens
How it was run: as §1

LoVo = experiment: SRB colorimetric cell growth inhibition assay, LoVo; conditions: Homo sapiens, LoVo
How it was run: as §1

HT-29 = experiment: SRB colorimetric cell growth inhibition assay, HT-29; conditions: Homo sapiens
How it was run: as §1

Compound `COc1cc(-c2c3c4cc(OC)c(OC(=O)[C@@H](N)CO)cc4oc(=O)c3n3ccc4c(OC(=O)[C@@H](N)CO)c(OC)c(OC)cc4c23)ccc1OC(=O)[C@@H](N)CO` [Compound 9] has a GI50 (SK-BR-3; SK-BR-3, SK-BR-3, GI=growth inhibition, read-out: GI50 SK-BR-3) of 174 nM, an IC (TGI) (SK-BR-3; SK-BR-3, SK-BR-3, total growth inhibition (cytostatic effect), read-out: TGI SK-BR-3) of 374 nM and a CC50 (SK-BR-3; SK-BR-3, read-out: LC50 SK-BR-3, SK-BR-3, cell killing (cytotoxic effect)) of 806 nM. It also gave a GI50 (DU-145; DU-145, DU-145, GI=growth inhibition, read-out: GI50 DU-145) of 54.3 nM, an IC (TGI) (DU-145; DU-145, DU-145, total growth inhibition (cytostatic effect), read-out: TGI DU-145) of 169 nM and a CC50 (DU-145; DU-145, read-out: LC50 DU-145, DU-145, cell killing (cytotoxic effect)) of 615 nM. For the same compound, the GI50 (SK-MEL-28; SK-MEL-28, MEL-28, GI=growth inhibition, read-out: GI50 MEL-28) was 134 nM, the IC (TGI) (SK-MEL-28; SK-MEL-28, MEL-28, total growth inhibition (cytostatic effect), read-out: TGI MEL-28) was 516 nM and the CC50 (SK-MEL-28; SK-MEL-28, read-out: LC50 MEL-28, MEL-28, cell killing (cytotoxic effect)) was 2110 nM. The CC50 (IGROV; read-out: LC50 IGROV, IGROV, cell killing (cytotoxic effect)) was 3000 nM, the GI50 (IGROV; GI=growth inhibition, read-out: GI50 IGROV) was 182 nM and the IC (TGI) (IGROV; total growth inhibition (cytostatic effect), read-out: TGI IGROV) was 909 nM. It also gave a CC50 (HeLa; read-out: LC50 HELA, HELA, cell killing (cytotoxic effect)) of 4060 nM, an IC (TGI) (HeLa; read-out: TGI HELA) of 459 nM and a GI50 (HeLa; GI=growth inhibition, read-out: GI50 HELA) of 107 nM. The GI50 (K-562; K562, K-562, GI=growth inhibition, read-out: GI50 K-562) was 47.3 nM, the IC (TGI) (K-562; K562, K-562, total growth inhibition (cytostatic effect), read-out: TGI K-562) was 311 nM and the CC50 (K-562; K562, read-out: LC50 K-562, K-562, cell killing (cytotoxic effect)) was 4180 nM. The GI50 (LNCaP; LN-caP, GI=growth inhibition, read-out: GI50 LN-caP) was 174 nM, the IC (TGI) (LNCaP; LN-caP, total growth inhibition (cytostatic effect), read-out: TGI LN-caP) was 422 nM and the CC50 (LNCaP; read-out: LC50 LN-caP, LN-caP, cell killing (cytotoxic effect)) was 1380 nM. The GI50 (LoVo-Dox; LOVO-DOX, GI=growth inhibition, read-out: GI50 LOVO-DOX) was 388 nM, the IC (TGI) (LoVo-Dox; LOVO-DOX, total growth inhibition (cytostatic effect), read-out: TGI LOVO-DOX) was 1140 nM and the CC50 (LoVo-Dox; read-out: LC50 LOVO-DOX, LOVO-DOX, cell killing (cytotoxic effect)) was 3630 nM. For the same compound, the GI50 (IGROV-ET; IGROV-ET, GI=growth inhibition, read-out: GI50 IGROV-ET) was 132 nM, the IC (TGI) (IGROV-ET; IGROV-ET, total growth inhibition (cytostatic effect), read-out: TGI IGROV-ET) was 980 nM and the CC50 (IGROV-ET; read-out: LC50 IGROV-ET, IGROV-ET, cell killing (cytotoxic effect)) was 493 nM. It also gave a GI50 (PANC-1; PANC-1, PANC-1, GI=growth inhibition, read-out: GI50 PANC-1) of 200 nM, an IC (TGI) (PANC-1; PANC-1, PANC-1, total growth inhibition (cytostatic effect), read-out: TGI PANC-1) of 1560 nM and a CC50 (PANC-1; PANC-1, read-out: LC50 PANC-1, PANC-1, cell killing (cytotoxic effect)) of 4910 nM. For the same compound, the GI50 (A-549; A549, A-549, GI=growth inhibition, read-out: GI50 A-549) was 323 nM, the IC (TGI) (A-549; A549, A-549, total growth inhibition (cytostatic effect), read-out: TGI A-549) was 1150 nM and the CC50 (A-549; A549, read-out: LC50 A-549, A-549, cell killing (cytotoxic effect)) was 6760 nM. The GI50 (HeLa-APL; read-out: GI50 HELA-APL) was 282 nM, the CC50 (HeLa-APL; read-out: LC50 HELA-APL, HELA-APL, cell killing (cytotoxic effect)) was 3830 nM and the IC (TGI) (HeLa-APL; read-out: TGI HELA-APL) was 1230 nM. It also gave a CC50 (LoVo; read-out: LC50 LOVO, LOVO, cell killing (cytotoxic effect)) of 2300 nM, a GI50 (LoVo; GI=growth inhibition, read-out: GI50 LOVO) of 243 nM and an IC (TGI) (LoVo; total growth inhibition (cytostatic effect), read-out: TGI LOVO) of 584 nM. For the same compound, the GI50 (HT-29; HT-29, HT-29, GI=growth inhibition, read-out: GI50 HT-29) was 1610 nM, the IC (TGI) (HT-29; HT-29, HT-29, total growth inhibition (cytostatic effect), read-out: TGI HT-29) was 3280 nM and the CC50 (HT-29; HT-29, read-out: LC50 HT-29, HT-29, cell killing (cytotoxic effect)) was 6660 nM.
